Assays:
interferon (α) (IFN-α) = assay: Cytokine induction in human cells: IFN-α secreted by PBMC into culture media (ELISA); type: cell-based; settings: for Maximal Response IFN / Minimum Effective Concentration IFN / minimal effective concentration: human PBMC; for Maximal Response IFN / Minimum Effective Concentration IFN: median where tested in more than one experiment; for minimal effective concentration: lowest tested concentration inducing IFN-α over usually 20 pg/mL, median where more than one experiment, read-out: Minimum Effective Concentration (μM) IFN; for Maximal Response (pg/mL) IFN: maximal response in dose response curve, median
Description: (§1) Cytokine Induction in Human Cells
(§2) An in vitro human blood cell system is used to assess cytokine induction. Activity is based on the measurement of interferon (α) and tumor necrosis factor (α) (IFN-α and TNF-α, respectively) secreted into culture media as described by Testerman et. al. in “Cytokine Induction by the Immunomodulators Imiquimod and S-27609”, Journal of Leukocyte Biology, 58, 365-372 (September, 1995).
(§3) Blood Cell Preparation for Culture
(§4) Whole blood from healthy human donors is collected by venipuncture into vacutainer tubes or syringes containing EDTA. Peripheral blood mononuclear cells (PBMC) are separated from whole blood by density gradient centrifugation using HISTOPAQUE-1077 (Sigma, St. Louis, Mo.) or Ficoll-Paque Plus (Amersham Biosciences Piscataway, N.J.). Blood is diluted 1:1 with Dulbecco's Phosphate Buffered Saline (DPBS) or Hank's Balanced Salts Solution (HBSS). Alternately, whole blood is placed in Accuspin (Sigma) or LeucoSep (Oreiner Bio-One, Inc., Longwood, Fla.) centrifuge frit tubes containing density gradient medium. The PBMC layer is collected and washed twice with DPBS or HBSS and re-suspended at 4×10^6 cells/mL in RPMI complete. The PBMC suspension is added to 96 well flat bottom sterile tissue culture plates containing an equal volume of RPMI complete media containing test compound.
(§5) The compounds are solubilized in dimethyl sulfoxide (DMSO). The DMSO concentration should not exceed a final concentration of 1% for addition to the culture wells. The compounds are generally tested at concentrations ranging from 30-0.014 μM. Controls include cell samples with media only, cell samples with DMSO only (no compound), and cell samples with reference compound.
(§6) The solution of test compound is added at 60 μM to the first well containing RPMI complete and serial 3 fold dilutions are made in the wells. The PBMC suspension is then added to the wells in an equal volume, bringing the test compound concentrations to the desired range (usually 30-0.014 μM). The final concentration of PBMC suspension is 2×10^6 cells/mL. The plates are covered with sterile plastic lids, mixed gently and then incubated for 18 to 24 hours at 37° C. in a 5% carbon dioxide atmosphere.
(§7) Following incubation the plates are centrifuged for 10 minutes at 1000 rpm (approximately 200×g) at 4° C. The cell-free culture supernatant is removed and transferred to sterile polypropylene tubes. Samples are maintained at −30 to −70° C. until analysis. The samples are analyzed for IFN-α by ELISA and for TNF-α by IGEN/BioVeris Assay.
(§8) Interferon (α) and Tumor Necrosis Factor (α) Analysis
IFN-α concentration is determined with a human multi-subtype calorimetric sandwich ELISA (Catalog Number 41105) from PBL Biomedical Laboratories, Piscataway, N.J. Results are expressed in pg/mL.
(§9) In total, the data output of the assay consists of concentration values of TNF-α and IFN-α (y-axis) as a function of compound concentration (x-axis).
Analysis of the data has two steps. First, the greater of the mean DMSO (DMSO control wells) or the experimental background (usually 20 pg/mL for IFN-α and 40 pg/mL for TNF-α) is subtracted from each reading. If any negative values result from background subtraction, the reading is reported as “*”, and is noted as not reliably detectable. In subsequent calculations and statistics, “*”, is treated as a zero. Second, all background subtracted values are multiplied by a single adjustment ratio to decrease experiment to experiment variability. The adjustment ratio is the area of the reference compound in the new experiment divided by the expected area of the reference compound based on the past 61 experiments (unadjusted readings). […] The reference compound used is 2-[4-amino-2-ethoxymethyl-6,7,8,9-tetrahydro-α,α-dimethyl-1H-imidazo[4,5-c]quinolin-1-yl]ethanol hydrate (U.S. Pat. No. 5,352,784; Example 91) and the expected area is the sum of the median dose values from the past 61 experiments. […]

[1] = tested on: tumor necrosis factor (α) (TNF-α); assay: Cytokine induction in human cells: TNF-α secreted by PBMC into culture media (ORIGEN M-Series immunoassay); type: cell-based; parameters: key to Maximal Response (pg/mL) TNF / Maximal Response TNF: If any negative values result from background subtraction, the reading is reported as “*”, and is noted as not reliably detectable; settings: for Minimum Effective Concentration TNF / Maximal Response TNF / minimal effective concentration: human PBMC; for Minimum Effective Concentration TNF: median where tested in more than one experiment; for Maximal Response TNF / Maximal Response (pg/mL) TNF: median; for minimal effective concentration / Maximal Response (pg/mL) TNF: Table 10; for minimal effective concentration: lowest tested concentration inducing TNF-α over usually 40 pg/mL, median where more than one experiment, read-out: Minimum Effective Concentration (μM) TNF; for Maximal Response (pg/mL) TNF: maximal response in dose response curve, * = below experimental background level
Description: as §1, §2, §3, §4, §5, §6, §7, §8
The TNF-α concentration is determined by ORIGEN M-Series Immunoassay and read on an IGEN M-8 analyzer from BioVeris Corporation, formerly known as IGEN International, Gaithersburg, Md. The immunoassay uses a human TNF-α capture and detection antibody pair (Catalog Numbers AHC3419 and AHC3712) from Biosource International, Camarillo, Calif. Results are expressed in pg/mL.
as §9
Analysis of the data has two steps. First, the greater of the mean DMSO (DMSO control wells) or the experimental background (usually 20 pg/mL for IFN-α and 40 pg/mL for TNF-α) is subtracted from each reading. If any negative values result from background subtraction, the reading is reported as “*”, and is noted as not reliably detectable. In subsequent calculations and statistics, “*”, is treated as a zero. Second, all background subtracted values are multiplied by a single adjustment ratio to decrease experiment to experiment variability. The adjustment ratio is the area of the reference compound in the new experiment divided by the expected area of the reference compound based on the past 61 experiments (unadjusted readings). […]

[2] = Table 11, * = TNF below experimental background of 40 pg/mL
[3] = Table 12, * = below the experimental background of 40 pg/mL
[4] = Table 10, * = below experimental background level

Compound | Maximal Response IFN (interferon (α) (IFN-α); Table 11) [pg/mL] | Minimum Effective Concentration IFN (interferon (α) (IFN-α); Table 11) [µM] | Minimum Effective Concentration TNF ([1]; Table 11) [µM] | Maximal Response TNF [1, 2] | further results
Cc1nc2c(N)nc3ccccc3c2n1CCCCNS(C)(=O)=O [Analog 48] | 7293 | 0.12 | 10 | 526 pg/mL | –
CC(C)(O)Cn1c(CO)nc2c(N)nc3cc(-c4cccc(O)c4)ccc3c21 [Example 168] | – | – | – | – | minimal effective concentration (interferon (α) (IFN-α); Table 10): 0.37 µM; minimal effective concentration [1]: 10 µM
CS(=O)(=O)NCCn1c(CO)nc2c(N)nc3cccnc3c21 [Example 146, N-[2-(4-Amino-2-hydroxymethyl-1H-imidazo[4,5-c][1,5]naphthyridin-1-yl)ethyl]methanesulfonamide] | – | – | – | – | Maximal Response IFN (interferon (α) (IFN-α); Table 12): 1520 pg/mL; Maximal Response TNF [1, 3]: *
CCCCCCCCCCCCCCCC(=O)NCCOCCn1c(CCO)nc2c(N)nc3ccccc3c21 [Example 140] | 673 | 1.11 | >30 | * | –
COCc1nc2c(N)nc3ccccc3c2n1CC(C)(C)NS(C)(=O)=O [Analog 47] | 1638 | 0.37 | 3.33 | 7151 pg/mL | –
Cc1nc2c(N)nc3ccccc3c2n1CCCCNC(=O)N1CCOCC1 [Analog 53] | 1538 | 0.12 | 10 | 1400 pg/mL | –
COCCc1nc2c(N)nc3cc(-c4cncc(CO)c4)ccc3c2n1CC(C)(C)O [Analog 16] | – | – | – | – | minimal effective concentration (interferon (α) (IFN-α); Table 10): 0.014 µM; Maximal Response (pg/mL) IFN (interferon (α) (IFN-α); [4]): 5868 pg/mL; minimal effective concentration [1]: 0.04 µM; Maximal Response (pg/mL) TNF [1]: 16296 pg/mL
CCOCc1nc2c(N)nc3cc(-c4cccnc4)ccc3c2n1CCCCNC(=O)C(C)C [Analog 37] | – | – | – | – | minimal effective concentration (interferon (α) (IFN-α); Table 10): 0.12 µM; Maximal Response (pg/mL) IFN (interferon (α) (IFN-α); [4]): 1194 pg/mL; minimal effective concentration [1]: 1.11 µM; Maximal Response (pg/mL) TNF [1]: 728 pg/mL
CCOCc1nc2c(N)nc3cc(-c4cccnc4)ccc3c2n1CC(C)(C)O [Analog 10, 1-(4-amino-2-ethoxymethyl-7-pyridin-3-yl-1H-imidazo[4,5-c]quinolin-1-yl)-2-methylpropan-2-ol] | – | – | – | – | Maximal Response (pg/mL) IFN (interferon (α) (IFN-α); Table 9, background-subtracted, reference-adjusted): 840 pg/mL; Maximal Response (pg/mL) IFN (interferon (α) (IFN-α); [4]): 840 pg/mL; Maximal Response (pg/mL) TNF [1]: 7867 pg/mL
CS(=O)(=O)NCCCCn1c(CCO)nc2c(N)nc3cccnc3c21 [Example 145, N-{4-{4-Amino-2-(2-hydroxyethyl)-1H-imidazo[4,5-c][1,5]naphthyridin-1-yl]butyl}methanesulfonamide] | – | – | – | – | Maximal Response IFN (interferon (α) (IFN-α); Table 12): 3008 pg/mL; Maximal Response TNF [1, 3]: 7 pg/mL
COCCc1nc2c(N)nc3ccccc3c2n1CCOCCN(C)S(C)(=O)=O [Analog 80] | 1630 | 0.014 | 0.37 | 2191 pg/mL | –
